From patent EP0213108A2, “Pharmaceutical preparation containing an antihypotonic as the active agent” (Burghart, Kurt, Dr., priority 1985, dated 1987)
Where a name gives a salt, the structure may show the parent alone.

Assay: Pulse and systolic/diastolic blood pressure over time after sublingual aerosol or oral administration
Assay type: in vivo
Conditions: hydrochloride, oral
Protocol: Die raschere Wirksamkeit der erfindungsgemäßen pharmazeutischen Zubereitung relativ zu einer konventionellen Zubereitung wird nachfolgen an Hand eine Ausführungsbeispieles näher erläutert.
In einer alkoholischen Lösung wurden hiebei unter Verwendung von Trichlorfluorkohlenwasserstoff als Treibgas 2,5 mg 1-(3'--Hydroxyphenyl)-2-aminoäthanol als Aerosol sublingual verabreicht. In der nachfolgenden Tabelle I sind unter A die Vergleichswerte für den systolischen und den diastolischen Druck über die Zeit bei Versprühen eines Placebos, unter B die Werte für den systolischen und den diastolischen Druck über die Zeit bei Verabreichung von 2,5 mg Base als Aerosol und unter C die systolischen und diastolischen Druckwerte bei Verabreichung der gleichen Wirksubstanz als Hydrochlorid und oral über die Zeit aufgetragen, wobei mit dem Zeitpunkt 0 Referenzwerte vorangestellt sind. Aus Tabelle B ist hiebei der rasche diastolische Druckanstieg bei sublingualer Verabreichung als Aerosol ersichtlich, wohingegen aus Tabelle C eine Steigerung des diastolischen Drucks frühestens nach Ablauf von 15 min entnommen werden kann.

## NCC(O)c1cccc(O)c1 (stereo not shown) [C, 1-(3'-Hydroxyphenyl)-2-aminoäthanol-hydrochlorid]
  Steigerung des diastolischen Drucks (time of onset): ≥ 15 min
1'
  Diastole: 8,53 kPa
  Puls: 64 min⁻¹
  Systole: 14,40 kPa
3'
  Diastole: 8,67 kPa
  Puls: 66 min⁻¹
  Systole: 14,00 kPa
5'
  Diastole: 8,53 kPa
  Puls: 71 min⁻¹
  Systole: 14,27 kPa
7'
  Diastole: 8,53 kPa
  Puls: 68 min⁻¹
  Systole: 14,40 kPa
10'
  Diastole: 8,80 kPa
  Puls: 66 min⁻¹
  Systole: 14,67 kPa
12'
  Diastole: 8,80 kPa
  Puls: 68 min⁻¹
  Systole: 13,87 kPa
15'
  Diastole: 8,67 kPa
  Puls: 77 min⁻¹
  Systole: 14,40 kPa
20'
  Diastole: 9,33 kPa
  Puls: 52 min⁻¹
  Systole: 14,93 kPa
25'
  Diastole: 8,80 kPa
  Puls: 67 min⁻¹
  Systole: 13,73 kPa
30'
  Diastole: 9,60 kPa
  Puls: 69 min⁻¹
  Systole: 14,27 kPa
